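Dose response: 5 concentrations. Exposure: 48 h. Format: 96-well plates. Endpoint: linear interpolation; highest concentration if not reached. GI50 = concentration required for 50% inhibition of growth. TGI marks complete inhibition of growth.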 Some results are limits rather than exact numbers.

Experimental findings from PubChem BioAssay (NCI) are described below.

Common to all, as to experiment: NCI anticancer screen, dose series, 48 h
Experiment [1] has as its system HS 578T breast.
Experiment [2] relates to HCT-116 colon.
Experiment [3] relates to NCI-H522 lung.
Experiment [4] concerns SNB-75 CNS.
Experiment [5] relates to IGROV1 ovarian.
The test system of experiment [6] is EKVX NSCLC.
The subject of experiment [7] is OVCAR-5 ovarian.
Experiment [8] relates to SK-MEL-2 melanoma.
Experiment [9] concerns OVCAR-3 ovarian.
In experiment [10] the test system is NCI/ADR-RES ovarian.

With `COc1cc2c(c(OC)c1OC)-c1c(cc3c(c1OC)OCO3)CC(C)C(C)(O)C2OC(=O)c1ccccc1` (stereo not given), the TGI in experiment [1], in experiment [2], in experiment [3], in experiment [4], in experiment [5] and in experiment [6] was more than 100 µM in each case. Further, the TGI was more than 100 µM in experiment [7], 80.5 µM in [8] and more than 100 µM in [9].
As for `O=C(NCC(=O)N1CCOC1=O)OCc1ccccc1`, the TGI in [2], in experiment [3], in experiment [4], in experiment [5], in experiment [6] and in experiment [8] was more than 100 µM in each case. In addition, in experiment [9], the TGI was more than 100 µM.
Turning to `COc1ccc2c(c1)C(=O)c1c-2n(CCCN)c(=O)c2cc([N+](=O)[O-])ccc12`, the GI50 in experiment [1] is 1.81 µM; in [2], less than 0.01 µM; in experiment [3], less than 0.01 µM; in experiment [5], less than 0.01 µM; in experiment [6], less than 0.01 µM; in experiment [7] it was less than 0.01 µM. Besides, the GI50 in experiment [8] is 3.06 µM; in experiment [9], 2.79 µM. Further, the TGI in experiment [1] was 4.44 µM; in [2], 0.0119 µM; in [3] it was 2.91 µM; in experiment [5] it was 0.192 µM; in experiment [6] it was 2.31 µM; in experiment [7], less than 0.01 µM. In addition, the TGI in experiment [8] was 8.53 µM; in [9] it was 15.9 µM.
For `COCCOCOC(C)(C)[C@H](CCOC(C)=O)O[Si](c1ccccc1)(c1ccccc1)C(C)(C)C`, the TGI in experiment [2] is more than 100 µM; in experiment [3], 29.4 µM; in [4] it was more than 100 µM; in experiment [5], more than 100 µM; in experiment [6] it was more than 100 µM; in experiment [7], more than 100 µM. Also, the TGI was determined as 59.2 µM in experiment [8] and 53.6 µM in experiment [9].
On to `O=C(O)[C@@H](NS(=O)(=O)c1ccc2ccccc2c1)c1ccccc1`, for which the TGI in experiment [3], in [4], in experiment [5], in [7] and in [8] was more than 100 µM in each case.
For the compound `Cc1ccc(NC(=O)CC2SC(N)=NC2=O)cc1C` (stereo not given), the TGI in experiment [2], in experiment [3], in [4], in experiment [5], in [7] and in [8] was more than 100 µM throughout. The compound further yielded a TGI in experiment [9] of more than 100 µM.
In the case of `CC(=O)NNc1nc(C)c(C(=O)/C=C/c2ccc(/C=C/C(=O)c3sc(NNC(C)=O)nc3C)cc2)s1`, the TGI in experiment [2], in experiment [3], in [5], in experiment [6], in [7] and in [8] was more than 100 µM throughout. Further, in experiment [9], the TGI is more than 100 µM.
Take `CN1CCc2c1nc(-c1cccnc1)c1c2N(C)CC1`: the TGI in [2], in experiment [4], in [5], in experiment [6], in [7] and in experiment [8] was more than 100 µM throughout. In experiment [9], this compound displayed a TGI of more than 100 µM.
On to `O=C(N/C(=C\c1cc(Cl)ccc1Cl)c1nc2ccc(Cl)cc2[nH]1)c1ccccc1`, for which the TGI in experiment [2] is 22.3 µM; in experiment [3], 25 µM; in experiment [4] it was 35.2 µM; in [5] it was 29.8 µM; in [6], 50.6 µM; in experiment [7], 60.1 µM. Moreover, the TGI turned out to be 32.4 µM in experiment [8] and 35.1 µM in experiment [9].
Take `NC(=O)C12CC3CC(CC(Br)(C3)C1)C2`: the TGI in [2], in [3], in experiment [4], in [5], in experiment [6] and in experiment [7] was more than 100 µM throughout. This compound yielded a TGI in experiment [9] of more than 100 µM.
Consider `Nc1cc2cccc[n+]2c2cccc(Cl)c12`, for which the GI50 in experiment [1] is 21.9 µM; in experiment [2], 36.9 µM; in [3], 16.2 µM; in [5], 69.9 µM; in experiment [6] it was 32.1 µM; in [8], 10.7 µM. Besides, the results for the TGI in [1], in [3] and in experiment [8] were 60.2 µM, 78 µM and 28.1 µM, respectively.
For the compound `COC(=O)C#CCC1CCCC1C1SCCS1` (stereo not given), the TGI in experiment [2], in experiment [3], in [4], in [5], in experiment [6] and in experiment [7] was more than 100 µM each time. Further, the TGI in experiment [8] was 74.6 µM; in experiment [9] it was more than 100 µM.
For `O=c1c(-c2ccccc2)coc2cc(OC/C(=N/O)c3ccc(F)cc3)ccc12`, the GI50 in experiment [2] was 16 µM; in experiment [3], 14.5 µM; in [4], 16.8 µM; in [10] it was 23.9 µM; in experiment [5], 19.9 µM; in experiment [6], 8.59 µM. Moreover, the GI50 was 18.1 µM in [7] and 19.7 µM in [9]. The TGI in [2] is 47.7 µM; in experiment [3], 46 µM; in experiment [4], 92.9 µM; in experiment [10], 62.3 µM; in experiment [5], more than 100 µM; in experiment [6], 26.1 µM. Moreover, the TGI was 43.8 µM in experiment [7] and 47.4 µM in experiment [9].
As to `CCN(CC)CCCC(C)Nc1c(Sc2cnc3cc(Cl)ccc3c2NC(C)CCCN(CC)CC)cnc2cc(Cl)ccc12` (stereo not given), the TGI in experiment [2] is 2.95 µM; in experiment [3], 3.15 µM; in experiment [4], 2.98 µM; in experiment [5], 3.51 µM; in [7] it was 3.34 µM; in experiment [8], 3.3 µM. Moreover, the TGI in [9] came out at 3.78 µM.
Consider `COc1cc(/C=C\c2ccncc2)cc(OC)c1OC`, for which the TGI in experiment [2], in experiment [3], in [4], in experiment [5], in experiment [6] and in [7] was more than 100 µM throughout. The compound further yielded a TGI in experiment [9] of more than 100 µM.
`CCCCCCCCCCCCCP(=O)(NCC(N)=O)OCC` (stereo not given): the TGI in experiment [2] came to 28 µM; in [4], 19.9 µM; in [5] it was 39.4 µM; in [6] it was 41 µM; in experiment [7] it was 38.3 µM; in [8], 30.3 µM. Besides, the TGI in experiment [9] was found to be 28.9 µM.
